Assay results published in paper PMC8234462, “Novel Cyclophilin Inhibitor Decreases Cell Proliferation and Tumor Growth in Models of Hepatocellular Carcinoma” (Cancers, 2021).

Assays:
RPTECs = assay: Cytotoxicity, CellTiter Glo; type: cell-based, human; details: 3 days of treatment, read-out: IC50 (50% reduction in cell viability)
Experimental: The evaluation of the off-target effects of NV651 was performed by ImQuest BioSciences Inc. (Frederick, MD, USA) by analyzing the cytotoxicity in a panel of primary cells. NV651 was evaluated at a concentration of 30 µM and five serial half-logarithmic dilutions in triplicate. The positive control compounds for each cell type were purchased from Sigma-Aldrich (St. Louis, MO, USA) and were as follows: Unstimulated human peripheral blood mononuclear cells (PBMCs), phytohemagglutinin (PHA)-stimulated PBMCs, monocytes/macrophages, dendritic cells, hepatocytes, induced pluripotent stem cell (iPS) neurons: […] AZT, kidney cells (RPTEC): cisplatin and iPS cardiomyocytes: Doxazosin. Human primary renal proximal tubule cells (hRPTEC, Lonza, Basel, Switzerland) were cultured at 1 × 10^4 cells/well in supplemented REGM medium (Lonza, Basel, Switzerland). Following overnight incubation for adherence, cells were treated with NV651 in triplicate. After a 3-day treatment, CellTiter Glo (Promega, Madison, WI, USA) was used. CellTiter Glo was performed to evaluate cell viability. CellTiter Glo Luminescent Cell Viability Assay (Promega, Madison, WI, USA) was performed according to the manufacturer’s instructions.

CypB = CypB (Homo sapiens, UniProt P23284); assay: PPIase activity assay (chymotrypsin-coupled); type: biochemical
Chain of CypB (P23284 34-216): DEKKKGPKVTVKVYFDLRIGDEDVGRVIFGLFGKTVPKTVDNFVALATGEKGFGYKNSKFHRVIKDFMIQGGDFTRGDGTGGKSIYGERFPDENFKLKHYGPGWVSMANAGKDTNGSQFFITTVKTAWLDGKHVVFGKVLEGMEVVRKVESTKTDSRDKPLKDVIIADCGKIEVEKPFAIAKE
Experimental: (§1) The PPIase activity of CypA, CypB, CypD and Cyp40 was determined by following the rate of hydrolysis of N-succinyl-Ala-Ala-Pro-Phe-p-nitroanilide by chymotrypsin, a digestive enzyme that only hydrolyzes the trans form of the peptide. Therefore, the hydrolysis of the cis form, the concentration of which is maximized by using a stock dissolved in trifluoroethanol containing 470-mM LiCl, is only possible with the isomerization from the cis to the trans form. […] The reaction was started with the peptide addition, and the change in absorbance was monitored spectrophotometrically at a 6-s interval for 6 min. The blank rates of hydrolysis (in the absence of Cyps) were subtracted from the rates in the presence of Cyps. The initial rates of the enzymatic reaction were analyzed by a first-order regression analysis of the time course of the change in absorbance.

CypD = CypD (Homo sapiens, UniProt P30405); assay: PPIase activity assay (chymotrypsin-coupled); type: biochemical; details: free-cell assay; Cyp equilibrated 1 h at 5 °C with inhibitor; read-out: absolute IC50, PPIase activity CypD
Chain of CypD (P30405 30-207): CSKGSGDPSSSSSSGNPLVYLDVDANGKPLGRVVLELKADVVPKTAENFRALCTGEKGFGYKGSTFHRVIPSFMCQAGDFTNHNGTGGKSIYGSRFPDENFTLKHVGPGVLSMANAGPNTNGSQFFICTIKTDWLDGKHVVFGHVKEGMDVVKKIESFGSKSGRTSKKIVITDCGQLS
Experimental: as §1

Cyp40 = Cyp40 (Homo sapiens, UniProt Q08752); assay: PPIase activity assay (chymotrypsin-coupled); type: biochemical; details: free-cell assay; Cyp equilibrated 1 h at 5 °C with inhibitor; read-out: absolute IC50, PPIase activity Cyp40
Chain of Cyp40 (Q08752 whole entry): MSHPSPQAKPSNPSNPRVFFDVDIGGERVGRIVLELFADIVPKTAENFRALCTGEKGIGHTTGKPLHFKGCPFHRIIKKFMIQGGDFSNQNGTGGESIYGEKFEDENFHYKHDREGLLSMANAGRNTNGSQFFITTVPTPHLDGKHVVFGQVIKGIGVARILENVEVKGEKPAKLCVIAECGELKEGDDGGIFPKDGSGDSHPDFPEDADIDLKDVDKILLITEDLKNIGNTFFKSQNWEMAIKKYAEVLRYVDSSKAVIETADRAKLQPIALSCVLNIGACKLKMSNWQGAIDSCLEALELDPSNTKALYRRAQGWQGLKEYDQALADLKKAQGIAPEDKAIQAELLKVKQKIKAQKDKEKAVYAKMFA
Experimental: as §1

Dendritic cells = assay: Cytotoxicity, CellTiter Glo; type: cell-based; details: Homo sapiens, Dendritic cell, 168 h, 7 days of treatment, read-out: IC50 (50% reduction in cell viability)
Experimental: The evaluation of the off-target effects of NV651 was performed by ImQuest BioSciences Inc. (Frederick, MD, USA) by analyzing the cytotoxicity in a panel of primary cells. NV651 was evaluated at a concentration of 30 µM and five serial half-logarithmic dilutions in triplicate. The positive control compounds for each cell type were purchased from Sigma-Aldrich (St. Louis, MO, USA) and were as follows: Unstimulated human peripheral blood mononuclear cells (PBMCs), phytohemagglutinin (PHA)-stimulated PBMCs, monocytes/macrophages, dendritic cells, hepatocytes, induced pluripotent stem cell (iPS) neurons: […] AZT, kidney cells (RPTEC): cisplatin and iPS cardiomyocytes: Doxazosin. The isolation was based on Nair, Archer. Briefly, freshly separated PBMCs from one donor were suspended in DPBS at 4 × 10^6 cells per mL and cultured in a T-75 flask. Cells were incubated for 30 min and then washed 5–7 times with DPBS to remove nonadherent cells. Cells were cultured in RPMI 1640 supplemented with 10% FBS, 2-mM L-glutamine, 25-mM HEPES, […], 100-µg/mL streptomycin, 50-ng/mL rhGM-CSF and 50-ng/mL rhIL-4 and incubated for 7 days. After the incubation period, cells were cultured in the same media with the addition of LPS (10 ng/mL) for two days. […]

LIXC-006 = assay: Cell proliferation assay: Acumen; type: cell-based; details: Homo sapiens, 168 h, 7 days, read-out: Abs IC50 growth inhibition
Experimental: (§2) Compound screening and comparison of the antiproliferative effect of NV651 and sorafenib were performed by Shanghai ChemPartner Co., Ltd. (Shanghai, China). Cells were seeded in a 96-well plate at the following concentrations: LIXC-003 400 cells/well, LIXC-004 1000 cells/well, LIXC-086 5000 cells/well, LIXC-066 1250 cells/well, LIXC-012 2000 cells/well, LIXC-006 1250 cells/well, HEPG2 1000 cells/well, HUH7 2000 cells/well and Hep3B2.1-7-Luc 1000 cells/well. Cells were treated with either sorafenib or NV651 at 0.004, 0.011, 0.034, 0.103, 0.309, 0.926, 2.778, 8.333, 25 µM or an equivalent volume with DMSO.
(§3) After 7 days, cells were trypsinized and collected. Fifty microliters of cell suspension were added to 50 µL of 2-µM Calcein AM (Invitrogen, Cat# C3099, Waltham, MA, USA) diluted in HBSS and placed in a black-walled 96-well plate. The plate was left for 30 min at room temperature, followed by a scan with Acumen eX3.
(§4) Growth inhibition for direct cell counting (%) by Acumen was calculated as:(1) 100−100∗Experimental count−Blank/DMSO count −Blank

LIXC-086 = assay: Cell proliferation assay: Acumen; type: cell-based; details: Homo sapiens, 168 h, 7 days, read-out: Abs IC50 growth inhibition
Experimental: as §2, §3, §4

LIXC-003 = assay: Cell proliferation assay: Acumen; type: cell-based; details: Homo sapiens, 168 h, 7 days, read-out: Abs IC50 growth inhibition
Experimental: as §2, §3, §4

HUH7 = assay: Cell proliferation assay: Acumen; type: cell-based; details: Homo sapiens, Huh-7, 168 h, 7 days, read-out: Abs IC50 growth inhibition
Experimental: as §2, §3, §4

LIXC-066 = assay: Cell proliferation assay: Acumen; type: cell-based; details: Homo sapiens, 168 h, 7 days, read-out: Abs IC50 growth inhibition
Experimental: as §2, §3, §4

HEPG2 = assay: Cell proliferation assay: Acumen; type: cell-based; details: Homo sapiens, 168 h, 7 days, read-out: Abs IC50 growth inhibition
Experimental: as §2, §3, §4

HEP3B2.1-7-Luc = assay: Cell proliferation assay: Acumen; type: cell-based; details: Homo sapiens, 168 h, 7 days, read-out: Abs IC50 growth inhibition
Experimental: as §2, §3, §4

LIXC-012 = assay: Cell proliferation assay: Acumen; type: cell-based; details: Homo sapiens, 168 h, 7 days, read-out: Abs IC50 growth inhibition
Experimental: as §2, §3, §4

LIXC-004 = assay: Cell proliferation assay: Acumen; type: cell-based; details: Homo sapiens, 168 h, 7 days, read-out: Abs IC50 growth inhibition
Experimental: as §2, §3, §4

iPS cardiomyocytes = assay: Cytotoxicity, CellTiter Glo; type: cell-based; details: Homo sapiens, Cardiomyocyte, 72 h, 3 days of treatment, read-out: IC50 (50% reduction in cell viability)
Experimental: The evaluation of the off-target effects of NV651 was performed by ImQuest BioSciences Inc. (Frederick, MD, USA) by analyzing the cytotoxicity in a panel of primary cells. NV651 was evaluated at a concentration of 30 µM and five serial half-logarithmic dilutions in triplicate. The positive control compounds for each cell type were purchased from Sigma-Aldrich (St. Louis, MO, USA) and were as follows: Unstimulated human peripheral blood mononuclear cells (PBMCs), phytohemagglutinin (PHA)-stimulated PBMCs, monocytes/macrophages, dendritic cells, hepatocytes, induced pluripotent stem cell (iPS) neurons: […] AZT, kidney cells (RPTEC): cisplatin and iPS cardiomyocytes: Doxazosin. iPS cardiomyocytes (Cellular Dynamics, Madison, WI, USA) were seeded in a 96-well plate precoated with 0.1% gelatin (Sigma-Aldrich, St. Louis, MO, USA) in a plating medium (Cellular dynamics, Madison, WI, USA) at a concentration of 1.5 × 10^4 cells/well. After 48 h of incubation, cells were washed, and NV651 diluted in the maintenance medium (Cellular Dynamics, Madison, WI, USA) was added. After 3 days of incubation, cell viability was measured with CellTiter Glo (Promega, Madison, WI, USA). CellTiter Glo was performed to evaluate cell viability. CellTiter Glo Luminescent Cell Viability Assay (Promega, Madison, WI, USA) was performed according to the manufacturer’s instructions.

Bone marrow progenitors = assay: Cytotoxicity, colony formation; type: cell-based, human; details: 14 days of treatment, colonies counted
Experimental: The evaluation of the off-target effects of NV651 was performed by ImQuest BioSciences Inc. (Frederick, MD, USA) by analyzing the cytotoxicity in a panel of primary cells. NV651 was evaluated at a concentration of 30 µM and five serial half-logarithmic dilutions in triplicate. The positive control compounds for each cell type were purchased from Sigma-Aldrich (St. Louis, MO, USA) and were as follows: Unstimulated human peripheral blood mononuclear cells (PBMCs), phytohemagglutinin (PHA)-stimulated PBMCs, monocytes/macrophages, dendritic cells, hepatocytes, induced pluripotent stem cell (iPS) neurons: […] AZT, kidney cells (RPTEC): cisplatin and iPS cardiomyocytes: Doxazosin. Bone marrow progenitor cells (Invitrogen, Waltham, MA, USA) were suspended in cell culture medium (Iscove-modified Dulbecco medium) containing 15% FBS, 10% giant tumor-conditioned medium (Bone Marrow Plus, Sigma-Aldrich, St. […] Cells (1 × 10^5 cells/well) were seeded in 6-well plates containing NV651 in triplicate. Cells were incubated for 14 days, and colonies (more than 30 cells) were counted.

With N.N.[Cl][Pt][Cl] [cisplatin, reference compound] the IC50 (RPTECs) was 0.009 µM.
With CC[C@H]1C[C@H](C)[C@@]2(NC1=O)O[C@@H](C[C@H](O)[C@@H](C)CC/C=C/C=C(\C)[C@@H]1C/C=C/C=C/[C@H](O)[C@H](C)[C@@H](O)[C@@H](CCC(C)=O)C(=O)N[C@@H](C(C)C)C(=O)N[C@@H](Cc3cccc(O)c3)C(=O)N3CCC[C@H](N3)C(=O)O1)[C@H](C)[C@H](O)[C@@H]2C [SfA, Sanglifehrin A, reference compound] the IC50 (CypB) was 0.00512 µM, the IC50 (CypD) was 0.00525 µM and the IC50 (Cyp40) was 0.00562 µM.
CN[C@@H]1C[C@H]2O[C@@](C)([C@@H]1OC)n1c3ccccc3c3c4c(c5c6ccccc6n2c5c31)C(=O)NC4 [Staurosporine, reference compound] showed an IC50 (Dendritic cells) of 0.009 µM.
With CNC(=O)c1cc(Oc2ccc(NC(=O)Nc3ccc(Cl)c(C(F)(F)F)c3)cc2)ccn1 [Sorafenib, reference compound] the IC50 (LIXC-006) was 3.35 µM, the IC50 (LIXC-086) was 1.9 µM and the IC50 (LIXC-003) was 0.003 µM. The IC50 (HUH7) was 0.739 µM, the IC50 (LIXC-066) was 1.65 µM and the IC50 (HEPG2) was 2.33 µM. For the same compound, the IC50 (HEP3B2.1-7-Luc) was 3.9 µM, the IC50 (LIXC-012) was 1.25 µM and the IC50 (LIXC-004) was 1.45 µM.
For COc1cc2nc(N3CCN(C(=O)C4COc5ccccc5O4)CC3)nc(N)c2cc1OC (stereo not shown) [doxazosin, reference compound], the IC50 (iPS cardiomyocytes) was 39.8 µM.
Work on Cc1cn([C@H]2C[C@H](N=[N+]=[N-])[C@@H](CO)O2)c(=O)[nH]c1=O [AZT, reference compound] yielded an IC50 (Bone marrow progenitors) of 0.89 µM.
